Data: publication PMC12670400, “LEKTI-Grafted Sunflower Trypsin Inhibitor: A Potential Therapeutic for Skin Diseases” (Journal of Medicinal Chemistry, 2025)
Like-named read-outs stand apart in the source and are kept apart here. Bridge positions count the residues as written; N and C are the ends. Peptide text beside a SMILES is read from it.

Columns and labels:
KLK5 = target: T1, KLK5 (Homo sapiens, UniProt Q9Y337); assay: Protease activity assay: inhibition of recombinant KLK5 (Boc-VPR-AMC substrate); assay type: biochemical
T1 construct: purchased R&D Systems 1108-SE
T1 sequence (Q9Y337 23-293): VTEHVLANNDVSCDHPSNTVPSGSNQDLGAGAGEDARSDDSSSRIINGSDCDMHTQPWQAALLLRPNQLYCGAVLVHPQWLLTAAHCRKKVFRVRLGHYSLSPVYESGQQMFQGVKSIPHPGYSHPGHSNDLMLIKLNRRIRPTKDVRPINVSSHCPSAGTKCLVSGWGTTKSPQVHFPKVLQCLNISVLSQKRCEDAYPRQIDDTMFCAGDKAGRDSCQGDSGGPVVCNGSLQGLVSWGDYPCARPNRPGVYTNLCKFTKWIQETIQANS
Method: Inhibitory activity against KLK5 was evaluated using the fluorogenic substrate Boc-VPR-AMC for KLK5 (Table ). […] The P1–P1′ reactive site (Arg5 to Ser6) is critical for inhibitor binding, with the P1′ position contributing up to 50% of the total association energy. , The conserved serine at P1′ in Bowman-Birk inhibitors (BBIs) is essential for function. […] Preservation of serine in the P1′ position restored inhibitory activity seen in 5 and 6. Preserving the native serine restored efficacy to the nanomolar range (5: 31 ± 7 nM; 6: 114 ± 11 nM).
Methods for biological experiment
SFTI analogues were created by individual amino acid substitutions in PYMOL (Python Molecular Graphics System) using the existing solution NMR structure of native SFTI - 1 (1JBL) found in the RCSB (Research Collaboratory for Structural Bioinformatics) database. Residues of 2 were mutated as follows: L5R, I10H, and F12W with conserved SFTI-1 backbone structure. Other SFTI based analogues were further modified using PYMOL. Currently, there are no SFTI-1 and Kallikrein 5 co-crystal structures found in the RCSB database. Superimposing the existing crystal structure of SFTI-1 and Trypsin complex (4XOJ) with Kallikrein 5 crystal structure (2PSX) was performed with PYMOL. Ab-initio docking between KLK5 and 2 were performed with HADDOCK 2.4 1, 2, with binding active site parameter set to Arg2, Cys3, Thr4, Arg5, Ser6 for 2 and Ser195, His57, and Asp102 for KLK5 catalytic triad. PRODIGY 3-5, set at 25 °C, was used to predict dissociation constant and binding interactions of docked clusters. Structural visualization and alignment were performed with PYMOL 6, and comparative sequence analysis was performed with MEGA11 7.
A fluorescence spectrometer using SpectraMax® i3x plate reader (Molecular Devices, United States) was used to measure the relative fluorescence unit (RFU) on a 96-well black microplate (Grenier Bio-one, cat no. 655074). The wavelengths were set to 360/460 nm (excitation/emission) for the substrate Boc-VPR-AMC (Bachem AG, cat no. 4003460) and 320/405nm for the substrate Mca-RPKPVE-Nval-WRK(Dnp)-NH2 Fluorogenic MMP Substrate (R&D Systems Biotechne, cat no.ES002). The Boc-VPR-AMC stock solution was prepared by dissolving the solid form in dimethyl sulfoxide to 100 mM. Mca-RPKPVE-Nval-WRK(Dnp)-NH2 fluorogenic MMP Substrate is supplied as stock solution at 10.0 mg/mL in dimethyl sulfoxide. Boc-VPR-AMC was used as a substrate for KLK5, 8 and 14. Mca-RPKPVE-Nval-WRK(Dnp)-NH2 was used as a substrate for KLK7. The ligand-only solution serves as a negative control (minimum RFU, 100% inhibition), and enzyme-only was served as positive (maximum RFU, 0% inhibition). The activities of proteases were measured and readout against the standard curve made in serial dilutions of tested recombinant KLKs, ranging from 0nM to 60nM. Each assay was done in triplicates and repeated at least for three times […]
Assessment of analogue mediated inhibition of KLK5, KLK7, KLK8, and KLK14 […]
Recombinant KLK5 (R&D Systems, cat no. 1108-SE) was diluted to a final concentration of 10 nM in 1X PBS (pH 8.0). KLK5 was pre -incubated on ice for 1 hour with serial dilutions of SFTI-derived analogues to assess inhibitory activity. After incubation, 20 µL of each mixture was transferred to we lls of a 96-well microplate in triplicates. The enzymatic reaction was initiated by adding 100 µL of Boc -VPR-AMC substrate (final concentration 100 µM) to each well. Fluorescence (RFU) was measured using a SpectraMax® i3x plate reader with chamber temperature maintained at 37°C. Readings were started at 0 minutes (baseline) and another […]
Recombinant KLK7 (R&D Systems , cat no. 2624-SE) and KLK14 (R&D Systems, cat no. 2664-SE) were activated by adding 1 mM CaCl ₂ 0.05% v/v Brij-35 (Sigma, cat no. […]
incubated at 37°C for 1 hour. Reactions were stopped by adding EDTA to a final concentration of 50 mM (Sigma, cat no. EDS-100G) KLK8 (catalytic domain only; R&D Systems, cat no. 2025-SE-010) was activated separately with 11 nM lysyl […]

[1] = amide bond, 42-membered ring, then NH4HCO3 air oxidation, 2 steps
[2] = target: Kallikrein-related peptidase 5 (KLK5) (UniProt Q9Y337 23-293); assay: enzyme inhibition assay (fluorogenic substrate); inhibition of KLK5 activity by the peptide, fluorogenic substrate Boc-VPR-AMC, n = 3; conditions in the Supporting Information; conditions: both partners purified
KLK8 = target: T2, KLK8 (UniProt O60259 33-260); assay: enzyme inhibition assay (fluorogenic substrate); selectivity: inhibition of KLK7, KLK8 or KLK14 activity by the peptide, n = 3; substrates and conditions in the Supporting Information; conditions: both partners purified
T2 construct: Kallikrein 8 (KLK8); construct and source are in the Supporting Information
T2 sequence (looked up): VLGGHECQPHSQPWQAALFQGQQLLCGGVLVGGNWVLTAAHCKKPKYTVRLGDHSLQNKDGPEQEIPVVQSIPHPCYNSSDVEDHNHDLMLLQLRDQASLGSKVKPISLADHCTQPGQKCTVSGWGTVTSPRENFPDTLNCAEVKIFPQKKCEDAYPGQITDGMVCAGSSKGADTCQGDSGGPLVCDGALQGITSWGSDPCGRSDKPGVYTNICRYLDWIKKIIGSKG

KLK14 = target: T3, KLK14 (UniProt Q9P0G3); assay: as above
T3 sequence (Q9P0G3 41-267, species assumed, looked up): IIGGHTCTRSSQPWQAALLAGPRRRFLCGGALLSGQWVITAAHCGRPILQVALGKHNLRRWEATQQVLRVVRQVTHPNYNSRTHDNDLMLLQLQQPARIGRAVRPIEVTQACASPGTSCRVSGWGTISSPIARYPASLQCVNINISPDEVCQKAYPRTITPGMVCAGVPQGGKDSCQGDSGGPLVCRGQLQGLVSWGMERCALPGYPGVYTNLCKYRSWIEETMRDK

KLK7 = KLK7 (Homo sapiens, UniProt P49862); assay: as above
[3] = MESNa/TCEP (N-to-S acyl shift, NCL), 0.1 M sodium phosphate pH 5.8, 50.0 °C
[4] = NaNO2, MPAA (NCL), TCEP, 6 M guanidinium chloride buffer, 1.0 mM, 25.0 °C

With CC[C@H](C)[C@@H]1NC(=O)[C@H](CO)NC(=O)[C@H](CCCNC(=N)N)NC(=O)[C@H]([C@@H](C)O)NC(=O)[C@@H]2CSSC[C@H](NC(=O)[C@H](Cc3c[nH]cn3)NC(=O)[C@@H]3CCCN3C(=O)[C@@H]3CCCN3C1=O)C(=O)N[C@@H](Cc1c[nH]c3ccccc13)C(=O)N1CCC[C@H]1C(=O)N[C@@H](CC(=O)O)C(=O)NCC(=O)N[C@@H](CCCNC(=N)N)C(=O)N2 [compound 2] (cyclo(CTRSIPPHCWPDGR); disulfide 1-9) as the molecule, how does the IC50 (KLK5; n = 3, 10 nM KLK5, Boc-VPR-AMC 100 µM, PBS pH 8.0, read-out: IC50 (n = 3)/nM for KLKs: KLK5) read?
Its IC50 is 54 ± 3 nM.

For GRCTRSIPPHCWPD, which ring closure, yield after HPLC [1, 3] is on record?
Its ring closure, yield after HPLC is 18%.

Which “increase in KLK5 inhibitory potency (IC50) compared to 2” value (KLK5; ratio of IC50 values) does the source give for N=C(N)NCCC[C@@H]1NC(=O)[C@H](Cc2c[nH]cn2)NC(=O)[C@@H]2CSSC[C@H](NC(=O)[C@H](CCC(=O)O)NC(=O)[C@@H]3CCCN3C(=O)[C@@H]3CCCN3C(=O)[C@H](Cc3ccc(O)cc3)NC(=O)[C@H](CO)NC1=O)C(=O)N[C@@H](Cc1c[nH]c3ccccc13)C(=O)N1CCC[C@H]1C(=O)N[C@@H](CC(N)=O)C(=O)NCC(=O)N[C@@H](Cc1ccccc1)C(=O)N2 [compound 8] here?
Its value is 7 fold.

And the “increase in KLK5 inhibitory potency (IC50) relative to 1” value (KLK5; ratio of IC50 values)?
The value was 28 fold.

For GSCTRSSPPECWPN, which ring closure, yield after HPLC [1, 4] is on record?
The ring closure, yield after HPLC was 9%.

Which ring closure, yield after HPLC [1, 4] does the source give for GFCTRSNPPECWPN here?
The ring closure, yield after HPLC was 8%.

For GFCHRSYPPHCWPN, which ring closure, yield after HPLC [1, 3] is on record?
Its ring closure, yield after HPLC is 15%.

Which ring closure, yield after HPLC [1, 3] does the source give for GFCTRSNPPHCWPN here?
The ring closure, yield after HPLC was 15%.

For GFCTRENPPHCWPN, which ring closure, yield after HPLC [1, 3] is on record?
The ring closure, yield after HPLC was 14%.

Which ring closure, yield after HPLC [1, 3] does the source give for GFCHREYPPHCWPN here?
The ring closure, yield after HPLC was 18%.

Which ring closure, yield after HPLC [1, 4] does the source give for GFCHRSYPPECWPN here?
The ring closure, yield after HPLC was 6%.

Which ring closure, yield after HPLC [1, 4] does the source give for GYCTRSSPPECWPN here?
The ring closure, yield after HPLC was 12%.

B1: SFTI analogue 4 (peptide)
peptide: cyclo(GFCHREYPPHCWPN)
modifications: disulfide 3-11 (inferred)
notes: scaffold of analogue 2 grafted with residues of a LEKTI or LEKTI-like domain; source: synthetic peptide (Fmoc solid-phase synthesis, cyclised via N to S acyl shift, oxidised, RP-HPLC purified)
For B1, which IC50 [2] is on record?
Its IC50 is 1490 ± 50 nM.

B2: SFTI analogue 9 (peptide)
peptide: cyclo(GSCTRSSPPECWPN)
modifications: disulfide 3-11 (inferred)
notes: SFTI scaffold grafted with residues of a further LEKTI domain, glutamic acid at position 10; source: synthetic peptide (hydrazide peptide, cyclised via native chemical ligation, oxidised, RP-HPLC purified)
Which IC50 (KLK8) does the source give for B2 here?
Its IC50 is greater than 1000 nM.

And the IC50 (KLK14)?
Its IC50 is greater than 1000 nM.

B3: SFTI analogue 10 (peptide)
peptide: cyclo(GYCTRSSPPECWPN)
modifications: disulfide 3-11 (inferred)
notes: as for B2
What does the source list for B3?
IC50 (KLK8): > 1000 nM; IC50 (KLK14): > 1000 nM

B4: SFTI analogue 6 (peptide)
peptide: cyclo(GFCHRSYPPHCWPN)
modifications: disulfide 3-11 (inferred)
notes: scaffold of analogue 2 grafted with residues of a LEKTI or LEKTI-like domain, serine kept at P1'; source: synthetic peptide (Fmoc solid-phase synthesis, cyclised via N to S acyl shift, oxidised, RP-HPLC purified)
For B4, which IC50 [2] is on record?
Its IC50 is 114 ± 11 nM.

B5: SFTI analogue 5 (peptide)
peptide: cyclo(GFCTRSNPPHCWPN)
modifications: disulfide 3-11 (inferred)
notes: scaffold of analogue 2 grafted with residues of a LEKTI domain, serine kept at P1'; source: synthetic peptide (Fmoc solid-phase synthesis, cyclised via N to S acyl shift, oxidised, RP-HPLC purified)
With B5 as the molecule, how does the IC50 [2] read?
The IC50 was 31 ± 7 nM.

B6: SFTI-1 triple mutant 2, cyclo-[GRCTRSIPPHCWPD] (peptide)
peptide: cyclo(GRCTRSIPPHCWPD)
modifications: disulfide 3-11 (inferred)
notes: numbers count on: the mature 14-residue cyclic peptide; source: synthetic peptide (Fmoc solid-phase synthesis, cyclised via N to S acyl shift, oxidised, RP-HPLC purified)
With B6 as the molecule, how does the IC50 (KLK8) read?
Its IC50 is 373 ± 31 nM.

Which results are given for cyclo(GRCTRSIPPHCWPD) (disulfide 3-11 (inferred)) [SFTI-1 triple mutant 2, cyclo-[…]]?
IC50 (KLK14): 24 nM; IC50 (KLK7): 534 nM

B7: SFTI analogue 3 (peptide)
peptide: cyclo(GFCTRENPPHCWPN)
modifications: disulfide 3-11 (inferred)
notes: scaffold of analogue 2 grafted with residues of a LEKTI domain; source: synthetic peptide (Fmoc solid-phase synthesis, cyclised via N to S acyl shift, oxidised, RP-HPLC purified)
Which IC50 [2] does the source give for B7 here?
Its IC50 is 1800 ± 58 nM.
